Measured values from patent publication US9062066B2, “Anti-inflammatory compound having inhibitory activity against multiple tyrosine kinases and pharmaceutical composition containing same” (KOREA INSTITUTE OF SCIENCE AND TECHNOLOGY, priority 2010, dated 2015).

Key:
Format in all cases: biochemical
c-Src tyrosine kinase = c-Src tyrosine kinase (Homo sapiens (Human), UniProt P12931); experiment: in vitro c-Src tyrosine kinase inhibition (32P-ATP, poly(D4Y)n substrate); conditions: 1 uM compound; read-out: % inhibition against c-Src
Chain of c-Src tyrosine kinase (P12931 whole entry, looked up): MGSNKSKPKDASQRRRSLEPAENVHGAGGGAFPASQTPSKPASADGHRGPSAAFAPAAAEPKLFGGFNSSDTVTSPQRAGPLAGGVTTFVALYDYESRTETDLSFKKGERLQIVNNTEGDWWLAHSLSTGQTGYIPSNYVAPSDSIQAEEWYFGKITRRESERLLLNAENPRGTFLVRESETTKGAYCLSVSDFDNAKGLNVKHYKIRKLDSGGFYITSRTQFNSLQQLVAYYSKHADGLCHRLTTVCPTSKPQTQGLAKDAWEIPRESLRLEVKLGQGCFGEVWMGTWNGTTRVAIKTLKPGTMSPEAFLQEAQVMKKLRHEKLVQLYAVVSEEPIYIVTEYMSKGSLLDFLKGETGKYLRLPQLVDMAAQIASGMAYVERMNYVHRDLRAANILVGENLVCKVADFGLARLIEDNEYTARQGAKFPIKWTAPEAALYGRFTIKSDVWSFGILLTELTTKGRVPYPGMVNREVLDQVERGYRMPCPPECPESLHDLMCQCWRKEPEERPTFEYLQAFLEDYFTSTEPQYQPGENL

Hck tyrosine kinase = Hck tyrosine kinase (Homo sapiens (Human), UniProt P08631); experiment: in vitro Hck tyrosine kinase inhibition; conditions: 1 uM compound; read-out: % inhibition against Hck
Chain of Hck tyrosine kinase (P08631 whole entry): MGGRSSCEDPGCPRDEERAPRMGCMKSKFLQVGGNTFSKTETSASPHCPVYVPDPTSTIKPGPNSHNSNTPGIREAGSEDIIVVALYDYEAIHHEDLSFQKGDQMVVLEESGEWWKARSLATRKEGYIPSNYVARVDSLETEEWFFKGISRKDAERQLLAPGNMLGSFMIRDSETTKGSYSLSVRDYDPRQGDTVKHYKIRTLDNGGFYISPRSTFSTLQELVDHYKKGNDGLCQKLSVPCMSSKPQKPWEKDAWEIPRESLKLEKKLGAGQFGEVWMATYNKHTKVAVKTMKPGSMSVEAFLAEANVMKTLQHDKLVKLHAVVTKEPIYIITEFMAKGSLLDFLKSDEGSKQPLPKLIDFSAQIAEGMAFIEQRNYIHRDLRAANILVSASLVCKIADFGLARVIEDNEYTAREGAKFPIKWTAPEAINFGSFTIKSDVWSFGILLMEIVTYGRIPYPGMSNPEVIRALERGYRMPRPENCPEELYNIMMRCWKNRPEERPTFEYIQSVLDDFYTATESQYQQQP

Fgr tyrosine kinase = Fgr tyrosine kinase (Homo sapiens (Human), UniProt P09769); experiment: in vitro Fgr tyrosine kinase inhibition; conditions: 1 uM compound; read-out: % inhibition against Fgr
Chain of Fgr tyrosine kinase (P09769 whole entry): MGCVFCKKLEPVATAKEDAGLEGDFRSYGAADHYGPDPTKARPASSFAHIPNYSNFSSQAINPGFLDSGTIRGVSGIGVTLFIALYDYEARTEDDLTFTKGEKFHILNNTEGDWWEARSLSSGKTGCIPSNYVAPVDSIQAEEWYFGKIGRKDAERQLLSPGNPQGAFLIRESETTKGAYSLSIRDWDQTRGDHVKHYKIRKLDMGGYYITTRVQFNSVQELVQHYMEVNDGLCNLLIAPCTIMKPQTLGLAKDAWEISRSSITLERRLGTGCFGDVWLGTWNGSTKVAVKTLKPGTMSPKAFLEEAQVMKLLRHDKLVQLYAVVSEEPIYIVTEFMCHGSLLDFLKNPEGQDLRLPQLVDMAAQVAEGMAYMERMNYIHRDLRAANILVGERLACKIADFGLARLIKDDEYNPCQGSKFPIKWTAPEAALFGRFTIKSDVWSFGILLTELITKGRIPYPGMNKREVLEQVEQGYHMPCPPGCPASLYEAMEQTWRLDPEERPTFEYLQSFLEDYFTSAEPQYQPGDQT

Lyn tyrosine kinase = Lyn tyrosine kinase (Homo sapiens (Human), UniProt P07948); experiment: in vitro Lyn tyrosine kinase inhibition; conditions: 1 uM compound; read-out: % inhibition against Lyn
Chain of Lyn tyrosine kinase (P07948 whole entry, the tested form may be a part): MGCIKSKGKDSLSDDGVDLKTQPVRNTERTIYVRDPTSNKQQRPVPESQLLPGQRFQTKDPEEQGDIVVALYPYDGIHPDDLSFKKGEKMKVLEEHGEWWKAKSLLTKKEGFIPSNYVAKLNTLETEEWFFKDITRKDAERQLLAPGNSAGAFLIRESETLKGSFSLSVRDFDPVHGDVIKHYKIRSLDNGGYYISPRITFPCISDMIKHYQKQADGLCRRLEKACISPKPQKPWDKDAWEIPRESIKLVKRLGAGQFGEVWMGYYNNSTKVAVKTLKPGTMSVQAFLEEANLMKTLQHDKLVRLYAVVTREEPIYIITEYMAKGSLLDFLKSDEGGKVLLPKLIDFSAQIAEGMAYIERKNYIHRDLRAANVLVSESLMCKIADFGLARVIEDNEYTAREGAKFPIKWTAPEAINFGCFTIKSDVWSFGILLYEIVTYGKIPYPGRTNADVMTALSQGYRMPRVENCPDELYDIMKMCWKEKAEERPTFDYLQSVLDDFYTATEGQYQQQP

DDR1 tyrosine kinase = DDR1 tyrosine kinase (Homo sapiens (Human), UniProt Q08345); experiment: in vitro DDR1 tyrosine kinase inhibition (GST-fused kinase domain); conditions: 1 uM compound; read-out: % inhibition against DDR1
Chain of DDR1 tyrosine kinase (Q08345 610-905): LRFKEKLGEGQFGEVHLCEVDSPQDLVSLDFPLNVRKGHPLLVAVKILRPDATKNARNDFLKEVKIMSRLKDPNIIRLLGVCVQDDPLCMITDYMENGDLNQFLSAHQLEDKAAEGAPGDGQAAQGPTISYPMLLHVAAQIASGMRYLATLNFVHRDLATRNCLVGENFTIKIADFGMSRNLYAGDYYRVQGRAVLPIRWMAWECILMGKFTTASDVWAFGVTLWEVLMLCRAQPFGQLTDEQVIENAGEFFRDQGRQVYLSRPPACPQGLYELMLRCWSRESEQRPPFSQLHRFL

DDR2 tyrosine kinase = DDR2 tyrosine kinase (Homo sapiens (Human), UniProt Q16832); experiment: in vitro DDR2 tyrosine kinase inhibition (GST-fused kinase domain); conditions: 1 uM compound; read-out: % inhibition against DDR2
Chain of DDR2 tyrosine kinase (Q16832 563-849): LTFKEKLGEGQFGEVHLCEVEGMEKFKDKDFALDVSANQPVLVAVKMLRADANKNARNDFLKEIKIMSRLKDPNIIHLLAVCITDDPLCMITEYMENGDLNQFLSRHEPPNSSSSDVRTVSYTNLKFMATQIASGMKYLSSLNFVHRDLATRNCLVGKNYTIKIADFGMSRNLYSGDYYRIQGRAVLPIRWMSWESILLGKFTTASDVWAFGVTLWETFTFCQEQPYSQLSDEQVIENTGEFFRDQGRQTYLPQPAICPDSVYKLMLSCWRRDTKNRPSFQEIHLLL

| SMILES | inhibition at 1 µM (c-Src tyrosine kinase) [%] | inhibition at 1 µM (Hck tyrosine kinase) [%] | inhibition at 1 µM (Fgr tyrosine kinase) [%] | inhibition at 1 µM (Lyn tyrosine kinase) [%] | inhibition at 1 µM (DDR1 tyrosine kinase) [%] | inhibition at 1 µM (DDR2 tyrosine kinase) [%] |
| --- | --- | --- | --- | --- | --- | --- |
| COc1cccc(Nc2ncnc3cc(-c4ccoc4)sc23)c1 [LCB 03-0024, (6-Furan-3-yl-thieno[3,2-d]pyrimidin-4-yl)-(3-methoxyphenyl)-amine] | > 30 | > 30 | > 30 | > 30 | > 70 | > 70 |
| COc1cccc(Nc2ncnc3cc(-c4ccco4)sc23)c1 [LCB 03-0023, (6-Furan-2-yl-thieno[3,2-d]pyrimidin-4-yl)-(3-methoxyphenyl)-amine] | > 40 | > 40 | > 40 | > 40 | > 60 | > 60 |
| CN1CCN(C(=O)c2cccc(-c3cc4ncnc(Nc5cccc(O)c5)c4s3)c2)CC1 [LCB 03-0055, (3-(4-(3-hydroxyphenylamino)thieno[3,2-d]pyrimidin-6-yl)phenyl)(4-methylpiperazin-1-yl)methanone] | > 50 | > 50 | > 50 | > 50 | > 80 | > 80 |
| Oc1cccc(Nc2ncnc3cc(-c4ccc(CCN5CCOCC5)cc4)sc23)c1 [LCB 03-0046, 3-(6-(4-(2-morpholinoethyl)phenyl)thieno[3,2-d]pyrimidin-4-ylamino)phenol] | > 30 | > 30 | > 30 | > 30 | > 80 | > 80 |
| COc1cccc(Nc2ncnc3cc(-c4ccc(OCCN5CCCC5)cc4)sc23)c1 [LCB 03-0026, N-(3-methoxyphenyl)-6-(4-(2-(pyrrolidin-1-yl)ethoxy)phenyl)thieno[3,2-d]pyrimidin-4-amine] | > 60 | > 60 | > 60 | > 40 | > 20 | > 20 |
| COc1cccc(Nc2ncnc3cc(-c4ccc(O)cc4)sc23)c1 [LCB 03-0016, 4-(4-(3-methoxyphenylamino)thieno[3,2-d]pyrimidin-6-yl)phenol] | > 70 | > 70 | > 70 | > 70 | > 20 | > 20 |
| O=C(O)C1CCCN1Cc1ccc(-c2cc3ncnc(Nc4cccc(O)c4)c3s2)cc1 (stereo not drawn) [LCB 03-0069, 1-(4-(4-(3-hydroxyphenylamino)thieno[3,2-d]pyrimidin-6-yl)benzyl)pyrrolidine-2-carboxylic acid] |  |  |  |  | > 50 | > 50 |
| COc1cccc(Nc2ncnc3cc(-c4ccc(OCCN5CCNCC5)cc4)sc23)c1 [LCB 03-0029, N-(3-methoxyphenyl)-6-(4-(2-(piperazin-1-yl)ethoxy)phenyl)thieno[3,2-d]pyrimidin-4-amine] | > 60 | > 60 | > 60 | > 60 | > 20 | > 20 |
| Oc1cccc(Nc2ncnc3cc(-c4cc(CN5CCCC5)co4)sc23)c1 [LCB 03-0113, 3-(6-(4-(pyrrolidin-1-ylmethyl)furan-2-yl)thieno[3,2-d]pyrimidin-4-ylamino)phenol] | > 50 | > 50 | > 50 | > 50 | > 70 | > 70 |
| COC(=O)C1CCCN1Cc1ccc(-c2cc3ncnc(Nc4cccc(O)c4)c3s2)cc1 (stereo not drawn) [LCB 03-0056, methyl 1-(4-(4-(3-hydroxyphenylamino)thieno[3,2-d]pyrimidin-6-yl)benzyl)pyrrolidine-2-carboxylate] | > 50 | > 50 | > 50 | > 50 | > 80 | > 80 |
| CC(CO)NC(=O)c1ccc(-c2cc3ncnc(Nc4cccc(O)c4)c3s2)cc1 (stereo not drawn) [LCB 03-0074, 4-(4-(3-hydroxyphenylamino)thieno[3,2-d]pyrimidin-6-yl)-N-(1-hydroxypropan-2-yl)benzamide] | > 30 | > 30 | > 30 | > 30 | > 80 | > 80 |
| Oc1cccc(Nc2ncnc3cc(-c4cc(CN5CCNCC5)cs4)sc23)c1 [LCB 03-0105, 3-(6-(4-(piperazin-1-ylmethyl)thiophene-2-yl)thieno[3,2-d]pyrimidin-4-ylamino)phenol] | > 50 | > 50 | > 50 | > 50 | > 70 | > 70 |
| COc1cccc(Nc2ncnc3cc(-c4cccs4)sc23)c1 [LCB 03-0027, N-(3-methoxyphenyl)-6-(thiophene-2-yl)thieno[3,2-d]pyrimidin-4-amine] | > 40 | > 40 | > 40 | > 40 | > 70 | > 70 |
| Oc1cccc(Nc2ncnc3cc(-c4cc(CN5CCOCC5)cs4)sc23)c1 [LCB 03-0104, 3-(6-(4-(morpholinomethyl)thiophene-2-yl)thieno[3,2-d]pyrimidin-4-ylamino)phenol] | > 50 | > 50 | > 50 | > 50 | > 80 | > 80 |
| Oc1cccc(Nc2ncnc3cc(-c4ccc(CCN5CCCCC5)cc4)sc23)c1 [LCB 03-0044] | > 30 | > 30 | > 30 | > 30 | > 80 | > 80 |
| CN1CCN(c2nc3ncnc(Nc4cccc(O)c4)c3s2)CC1 [LCB 03-0100, 3-(2-(4-methylpiperazin-1-yl)thiazolo[4,5-d]pyrimidin-7-ylamino)phenol] | > 30 | > 30 | > 30 | > 30 | > 70 | > 70 |
| Oc1cccc(Nc2ncnc3cc(-c4cc(CN5CCCCC5)co4)sc23)c1 [LCB 03-0115, 3-(6-(4-(piperidin-1-ylmethyl)furan-2-yl)thieno[3,2-d]pyrimidin-4-ylamino)phenol] | > 50 | > 50 | > 50 | > 50 | > 70 | > 70 |
| CN1CCN(CCc2ccc(-c3cc4ncnc(Nc5cccc(O)c5)c4s3)cc2)CC1 [LCB 03-0045] | > 30 | > 20 | > 20 | > 30 | > 80 | > 80 |
| CN1CCN(Cc2coc(-c3cc4ncnc(Nc5cccc(O)c5)c4s3)c2)CC1 [LCB 03-0114, 3-(6-(4-((4-methylpiperazin-1-yl)methyl)furan-2-yl)thieno[3,2-d]pyrimidin-4-ylamino)phenol] | > 50 | > 50 | > 50 | > 50 | > 70 | > 70 |
| N#Cc1ccc(-c2cc3ncnc(Nc4cccc(O)c4)c3s2)cc1 [LCB 03-0013, 4-(4-(3-hydroxyphenylamino)thieno[3,2-d]pyrimidin-6-yl)benzonitrile] | > 70 | > 70 | > 60 | > 70 | > 60 | > 60 |
| COc1cccc(Nc2ncnc3cc(-c4ccsc4)sc23)c1 [LCB 03-0028, (3-Methoxyphenyl)-(6-thiophene-3-yl-thieno[3,2-d]pyrimidin-4-yl)-amine] | > 30 | > 30 | > 30 | > 30 | > 50 | > 50 |
| NC(=O)C1CCCN1Cc1ccc(-c2cc3ncnc(Nc4cccc(O)c4)c3s2)cc1 (stereo not drawn) [LCB 03-0068, 1-(4-(4-(3-hydroxyphenylamino)thieno[3,2-d]pyrimidin-6-yl)benzyl)pyrrolidine-2-carboxamide] |  |  |  |  | > 80 | > 80 |
| Oc1cccc(Nc2ncnc3cc(-c4ccsc4)sc23)c1 [LCB 03-0031, 3-(6-Thiophene-3-yl-thieno[3,2-d]pyrimidin-4-ylamino)-phenol] | > 40 | > 40 | > 40 | > 30 | > 70 | > 70 |
| CC(NC(=O)c1ccc(-c2cc3ncnc(Nc4cccc(O)c4)c3s2)cc1)C(=O)O (stereo not drawn) [LCB 03-0075, 2-(4-(4-(3-hydroxyphenylamino)thieno[3,2-d]pyrimidin-6-yl)benzamido)propanoic acid] | > 30 | > 30 | > 30 | > 30 | > 80 | > 80 |
| O=C(O)c1cccc(-c2cc3ncnc(Nc4cccc(O)c4)c3s2)c1 [LCB 03-0051, 3-(4-(3-hydroxyphenylamino)thieno[3,2-d]pyrimidin-6-yl)benzoic acid] |  |  |  |  | > 80 | > 80 |
